Experimental data as given in patent publication US20250034159A1, “INHIBITORS OF EPIDERMAL GROWTH FACTOR RECEPTOR” (ORIC Pharmaceuticals, Inc., priority 2021, published 2025).

How the values were obtained:
[1] = target: recombinant human EGFR exon 19 deletion/C797S double mutant protein (Homo sapiens (Human), UniProt P00533, C797S/DEL746-750); experiment: Biological Activity Assay C: biochemical assay against EGFR exon 19 deletion/C797S protein (EGFR d19/CS)
Summary of the method: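 IC50 values were fitted with a 4-parameter model to reaction slopes taken from 90 kinetic reads spaced 120 s apart. The Phosphosens sensor/ATP working solution was 40 uM/4 mM, and compound was dosed as 16-point dilutions at 2.5% final DMSO.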

[2] = tested on: Ba/F3_EGFR WT cells; experiment: Biological Activity Assay D: BaF3 cell proliferation assay, EGFR wild-type (BaF3 WT); type: cell-based; settings: Ba/F3 EGFR; Ba/F3_EGFR WT cells, ~72 hours, CellTiter-Glo; read-out: BaF3 WT IC50
[3] = tested on: BaF3_EGFR d19/CS cells; experiment: Biological Activity Assay D: BaF3 cell proliferation assay, EGFR exon 19 deletion/C797S (BaF3 d19/CS); type: cell-based; settings: Ba/F3 EGFR; BaF3_EGFR d19/CS cells, ~72 hours, CellTiter-Glo; read-out: BaF3 d19/CS IC50
[4] = tested on: BaF3_EGFR LR/CS cells; experiment: Biological Activity Assay D: BaF3 cell proliferation assay, EGFR L858R/C797S mutant (BaF3 LR/CS); type: cell-based; settings: Ba/F3 EGFR; BaF3_EGFR LR/CS cells, ~72 hours, CellTiter-Glo; read-out: BaF3 LR/CS IC50

recombinant human EGFR exon 19 deletion/C797S double mutant protein, sequence (P00533 other isoform, or with tags, fused parts or gaps C797S/del 1-668/del 746-750 limits assumed): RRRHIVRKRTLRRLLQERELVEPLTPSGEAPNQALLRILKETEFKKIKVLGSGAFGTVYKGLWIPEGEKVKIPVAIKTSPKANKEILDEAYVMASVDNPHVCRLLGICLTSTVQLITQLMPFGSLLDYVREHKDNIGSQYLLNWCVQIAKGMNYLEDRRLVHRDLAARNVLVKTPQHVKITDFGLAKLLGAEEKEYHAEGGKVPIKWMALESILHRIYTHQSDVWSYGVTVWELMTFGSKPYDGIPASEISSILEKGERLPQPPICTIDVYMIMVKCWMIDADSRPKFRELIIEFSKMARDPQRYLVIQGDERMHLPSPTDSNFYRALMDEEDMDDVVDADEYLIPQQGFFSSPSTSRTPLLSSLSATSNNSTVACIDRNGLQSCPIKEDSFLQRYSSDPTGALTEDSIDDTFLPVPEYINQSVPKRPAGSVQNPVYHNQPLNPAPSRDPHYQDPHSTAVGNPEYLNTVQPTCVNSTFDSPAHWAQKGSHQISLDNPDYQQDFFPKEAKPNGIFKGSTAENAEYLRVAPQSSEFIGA

Row | Compound | IC50 [1] | IC50 [2] | IC50 [3] | IC50 [4]
1 | CC(C)(C)OC(=O)N1CCC=C(c2cc3c(-c4cn(C5CS(=O)(=O)C5)nc4-c4ccc(F)cc4)ncnc3o2)C1 [Example 146, tert-butyl 5-{4-[1-(1,1-dioxo-1λ6-thietan-3-yl)-3-(4-fluorophenyl)-1H-pyrazol-4-yl]furo[2,3-d]pyrimidin-6-yl}-3,6-dihydropyridine-1(2H)-carboxylate] | 4.18 nM | 7880 nM | 525 nM | 928 nM
2 | CC(=O)N1CCN(c2cc3c(-c4cn(C5CS(=O)(=O)C5)nc4-c4ccc(F)cc4)ncnc3o2)CC1 [Example 149, 3-{4-[6-(4-acetylpiperazin-1-yl)furo[2,3-d]pyrimidin-4-yl]-3-(4-fluorophenyl)-1H-pyrazol-1-yl}-1λ6-thietane-1,1-dione] | 3.72 nM | > 20000 nM | 1160 nM | 2770 nM
3 | Fc1ccc(-c2nn([C@H]3C[C@@H](F)C3)cc2-c2ncnc3oc(-c4ccccc4)cc23)cc1 [Example 150, 4-{1-[(1s,3s)-3-fluorocyclobutyl]-3-(4-fluorophenyl)-1H-pyrazol-4-yl}-6-phenylfuro[2,3-d]pyrimidine] | 1.42 nM | 3320 nM | 69.9 nM | 42.2 nM
4 | O=S1(=O)CC(n2cc(-c3ncnc4oc(C5=CCCNC5)cc34)c(-c3ccc(F)cc3)n2)C1 [Example 159, 3-{3-(4-fluorophenyl)-4-[6-(1,2,5,6-tetrahydropyridin-3-yl)furo[2,3-d]pyrimidin-4-yl]-1H-pyrazol-1-yl}-1λ6-thietane-1,1-dione] | 3.79 nM | 6050 nM | 267 nM | 511 nM
5 | O=C1CCCCN1c1cc2c(-c3cn(C4CS(=O)(=O)C4)nc3-c3ccc(F)cc3)ncnc2o1 [Example 160, 3-{3-(4-fluorophenyl)-4-[6-(2-oxopiperidin-1-yl)furo[2,3-d]pyrimidin-4-yl]-1H-pyrazol-1-yl}-1λ6-thietane-1,1-dione] | 4.99 nM | 14200 nM | 359 nM | 751 nM
6 | O=S1(=O)CC(n2cc(-c3ncnc4oc(N5CC6(CCOC6)C5)cc34)c(-c3ccc(F)cc3)n2)C1 [Example 168, 3-{3-(4-fluorophenyl)-4-[6-(6-oxa-2-azaspiro[3.4]octan-2-yl)furo[2,3-d]pyrimidin-4-yl]-1H-pyrazol-1-yl}-1λ6-thietane-1,1-dione] | 15.6 nM | > 20000 nM | 1150 nM | 3570 nM
7 | O=S1(=O)CC(n2cc(-c3ncnc4oc(-c5cccc(C(F)(F)F)c5)cc34)c(-c3ccc(F)cc3)n2)C1 [Example 169, 3-[3-(4-fluorophenyl)-4-{6-[3-(trifluoromethyl)phenyl]furo[2,3-d]pyrimidin-4-yl}-1H-pyrazol-1-yl]-1λ6-thietane-1,1-dione] | 3.08 nM | 11300 nM | 461 nM | 399 nM
8 | Fc1ccc(-c2nn([C@H]3C[C@H]4CC[C@@H](C3)O4)cc2-c2ncnc3oc(-c4ccccc4)cc23)cc1 [Example 172, 4-{3-(4-fluorophenyl)-1-[(1R,3r,5S)-8-oxabicyclo[3.2.1]octan-3-yl]-1H-pyrazol-4-yl}-6-phenylfuro[2,3-d]pyrimidine] | 1.44 nM | 7050 nM | 199 nM | 33.1 nM
9 | O=S1(=O)CC(n2cc(-c3ncnc4oc(-c5ccnnc5)cc34)c(-c3ccc(F)cc3)n2)C1 [Example 174, 3-{3-(4-fluorophenyl)-4-[6-(pyridazin-4-yl)furo[2,3-d]pyrimidin-4-yl]-1H-pyrazol-1-yl}-1λ6-thietane-1,1-dione] | 3.72 nM | 9070 nM | 491 nM | 770 nM
10 | O=S1(=O)CC(n2cc(-c3ncnc4oc(-c5cncnc5)cc34)c(-c3ccc(F)cc3)n2)C1 [Example 175, 3-{3-(4-fluorophenyl)-4-[6-(pyrimidin-5-yl)furo[2,3-d]pyrimidin-4-yl]-1H-pyrazol-1-yl}-1λ6-thietane-1,1-dione] | 6.08 nM | 11700 nM | 248 nM | 472 nM

Compounds with a lower IC50 [1], results first:

Row | IC50 [1] | IC50 [2] | IC50 [3] | IC50 [4] | Compound
11 | 1.37 nM | 4840 nM | 213 nM | 97.1 nM | Fc1ccc(-c2nn(C3CC(F)(F)C3)cc2-c2ncnc3oc(-c4ccccc4)cc23)cc1 [Example 170, 4-[1-(3,3-difluorocyclobutyl)-3-(4-fluorophenyl)-1H-pyrazol-4-yl]-6-phenylfuro[2,3-d]pyrimidine]
12 | 0.75 nM | 16300 nM | 440 nM | 630 nM | O=S1(=O)CC(n2cc(-c3ncnc4oc(C5=CNCCC5)cc34)c(-c3ccc(F)cc3)n2)C1 [Example 154, 3-{3-(4-fluorophenyl)-4-[6-(1,4,5,6-tetrahydropyridin-3-yl)furo[2,3-d]pyrimidin-4-yl]-1H-pyrazol-1-yl}-1λ6-thietane-1,1-dione]
13 | 0.61 nM | 1510 nM | 92.3 nM | 69.8 nM | CN1CCC(n2cc(-c3ncnc4oc(-c5ccccc5)cc34)c(-c3ccc(F)cc3)n2)C1=O (stereo not drawn) [Example 148, 3-[3-(4-Fluorophenyl)-4-(6-phenylfuro[2,3-d]pyrimidin-4-yl)-1H-pyrazol-1-yl]-1-methylpyrrolidin-2-one]
14 | 0.44 nM | 1360 nM | 63.9 nM | 10.6 nM | C[C@]1(O)C[C@@H](Cn2cc(-c3ncnc4oc(-c5ccccc5)cc34)c(-c3ccc(F)cc3)n2)C1 [Example 162, (1s,3s)-3-{[3-(4-fluorophenyl)-4-(6-phenylfuro[2,3-d]pyrimidin-4-yl)-1H-pyrazol-1-yl]methyl}-1-methylcyclobutan-1-ol]
15 | 0.41 nM | 1160 nM | 63.8 nM | 65 nM | CC(=O)N1C=C(c2cc3c(-c4cn(C5CS(=O)(=O)C5)nc4-c4ccc(F)cc4)ncnc3o2)CCC1 [Example 155, 3-{4-[6-(1-acetyl-1,4,5,6-tetrahydropyridin-3-yl)furo[2,3-d]pyrimidin-4-yl]-3-(4-fluorophenyl)-1H-pyrazol-1-yl}-1λ6-thietane-1,1-dione]
16 | 0.31 nM | 1480 nM | 30.5 nM | 18.8 nM | FCCCn1cc(-c2ncnc3oc(-c4ccccc4)cc23)c(-c2ccc(F)cc2)n1 [Example 156, 4-[3-(4-fluorophenyl)-1-(3-fluoropropyl)-1H-pyrazol-4-yl]-6-phenylfuro[2,3-d]pyrimidine]
17 | 0.29 nM | 888 nM | 36.3 nM | 26.3 nM | O=S1(=O)CC(n2cc(-c3ncnc4oc(-c5cccnc5)cc34)c(-c3ccc(F)cc3)n2)C1 [Example 164, 3-{3-(4-fluorophenyl)-4-[6-(pyridin-3-yl)furo[2,3-d]pyrimidin-4-yl]-1H-pyrazol-1-yl}-1λ6-thietane-1,1-dione]
18 | 0.27 nM | 619 nM | 22.1 nM | 10.1 nM | CS(=O)(=O)[C@H]1C[C@@H](n2cc(-c3ncnc4oc(-c5ccccc5)cc34)c(-c3ccc(F)cc3)n2)C1 [Example 163, 4-{3-(4-fluorophenyl)-1-[(1s,3s)-3-(methanesulfonyl)cyclobutyl]-1H-pyrazol-4-yl}-6-phenylfuro[2,3-d]pyrimidine]
19 | 0.26 nM | 1380 nM | 68.6 nM | 73.3 nM | NC(=O)CCCn1cc(-c2ncnc3oc(-c4ccccc4)cc23)c(-c2ccc(F)cc2)n1 [Example 147, 4-[3-(4-Fluorophenyl)-4-(6-phenylfuro[2,3-d]pyrimidin-4-yl)-1H-pyrazol-1-yl]butanamide]
20 | 0.26 nM | 782 nM | 33 nM | 15.1 nM | CC(C)(Cn1cc(-c2ncnc3oc(-c4ccccc4)cc23)c(-c2ccc(F)cc2)n1)C(N)=O [Example 158, 3-[3-(4-fluorophenyl)-4-(6-phenylfuro[2,3-d]pyrimidin-4-yl)-1H-pyrazol-1-yl]-2,2-dimethylpropanamide]
21 | 0.26 nM | 1090 nM | 37 nM | 20.6 nM | O=S1(=O)CC(n2cc(-c3ncnc4oc(-c5ccncc5)cc34)c(-c3ccc(F)cc3)n2)C1 [Example 165, 3-{3-(4-fluorophenyl)-4-[6-(pyridin-4-yl)furo[2,3-d]pyrimidin-4-yl]-1H-pyrazol-1-yl}-1λ6-thietane-1,1-dione]
22 | 0.14 nM | 565 nM | 13.1 nM | 4.93 nM | N=S1(=O)CCC(n2cc(-c3ncnc4oc(-c5ccccc5)cc34)c(-c3ccc(F)cc3)n2)C1 (stereo not drawn) [Example 161, 3-[3-(4-fluorophenyl)-4-(6-phenylfuro[2,3-d]pyrimidin-4-yl)-1H-pyrazol-1-yl]-1-imino-1λ6-thiolan-1-one]
23 | 0.11 nM | 800 nM | 28.9 nM | 17.6 nM | O=S1(=O)CC(n2cc(-c3ncnc4oc(-c5ccccn5)cc34)c(-c3ccc(F)cc3)n2)C1 [Example 173, 3-{3-(4-fluorophenyl)-4-[6-(pyridin-2-yl)furo[2,3-d]pyrimidin-4-yl]-1H-pyrazol-1-yl}-1λ6-thietane-1,1-dione]
24 | 0.06 nM | 1810 nM | 26.6 nM | 7.74 nM | O=S1(=O)CCC(n2cc(-c3ncnc4[nH]c(-c5ccccc5)nc34)c(-c3ccc(F)cc3)n2)C1 (stereo not drawn) [Example 171, 3-[3-(4-fluorophenyl)-4-(8-phenyl-9H-purin-6-yl)-1H-pyrazol-1-yl]-1λ6-thiolane-1,1-dione]
